The record followed here is patent US20040037860A1, “Free nicotine based cosmetic composition and uses thereof” (COLUMBUS, priority 2001, published 2004).

In test [1] the test system is localized gynoid lipodystrophy of the thighs and of the buttocks (LGL). The note with it: small dose, topical.
Description: The applicant carried out a comparative trial intended to evaluate the efficacy of the composition of the invention, as a local topical application, in patients with gynoid lipodystrophy of the thighs and of the buttocks, in comparison with a placebo, considered as a control group. Concomitantly, the effects of the composition on the softness and firmness of the skin were assessed.
It is a randomized comparative double blind monocenter trial comprising two groups of treatment of localized gynoid lipodystrophy of the thighs and of the buttocks (LGL):
This trial lasted for 9 weeks and comprised a one-week inclusion phase, followed by an 8-week treatment phase. It was carried out in patients suffering from LGL.
Evaluation carried out during the inclusion visit, at D28, and at the final visit for the principal and secondary criteria.
1.-Measurement of the adipose panicle by ultrasound scan, measured with the aid of a wide probe, by looking at the great trochanter of each femur.
The probe was placed on a tripod, at the constant level of the ground for each subject. The measurement was carried out after acquiring the last possible image by detaching the probe from the skin plane.
For test [2] the following is noted: no significant difference in weight versus placebo at D28 or D56.

Turning to `CN1CCCC1c1cccnc1` (centres unmarked) [Nicotine, nicotine], in test [1], the “reduction of the thickness of localized gynoid lipodystrophy (cellulite), on average” value stood at 8.9%. In addition, in test [2], the overall slimming effect entry is on record as “no overall slimming effect”.
